Experimental data: patent publication US4632925A, “N-substituted diphenylpiperidines and antiobesity use thereof” (Hoffmann-La Roche Inc., priority 1985, dated 1986)
Counter-ions that a name gives are not always drawn.

Assays:
[1] = system: isolated perfused rat pancreas (insulin secretion); assay: Insulin-secretory activity in the isolated perfused rat pancreas; parameters: species or system rat (female Charles River); conditions: 16.7 mM glucose, index > 1 indicates suppression of insulin secretion
Experimental: DETERMINATION OF INSULIN-SECRETORY ACTIVITY IN THE ISOLATED PERFUSED RAT PANCREAS
Pancreases were obtained from young adult female Charles River rats weighing from 200-300 g. The animals were anesthesized with sodium pentobarbitol (45 mg/kg), injected intraperitoneally, and the pancreas with its intact vasculature was removed and connected to an extracorporeal perfusion apparatus.
The basic perfusion solution contained: 133 mM NaCl, 4.4 mM KCl, 2.5 mM MgSO4, 2.4 mM Ca gluconate, 1.5 mM KH2 PO4, 29.4 mM HaHCO3, 4% dextran and 0.2% bovine serum albumin and glucose as discussed below. The perfusion flow rate was kept constant at 4 ml/min. After a 15-20 minute equilibration period, the experimental protocol was begun. The pancreatic effluent was collected in either one or four-minute fractions.
The perfusion was run in the following sequence for each test compounds:
30 min 16.7 mM glucose--internal control
30 min 16.7 mM glucose and test compound
10 min 16.7 mM glucose--to check pancreas viability
The perfusion for the nontreated pancreas preparation was run as above, except that the test compound was omitted and replaced with perfusion solution.
Test compounds were dissolved in 90% ethanol or dimethylsulfoxide to a concentration of 25 mM and then diluted in the perfusion buffer to the desired concentration. The perfusion effluent was collected in one or four minute fractions--the samples were checked immediately, aliquoted for submission to radioimmunoassay and stored at -20° C. until the time of assay. The radioimmunoassay of insulin was carried out by a back-titration method using a pure rat insulin standard.
To assess the inhibitory activity of the test compounds, an inhibition index was calculated. The inhibition index is derived by comparing the insulin secretion response from treated versus nontreated pancreas preparations. For each preparation, a ratio of insulin secretion was calculated from the area under the insulin secretion curve of the first pulse of 16.7 mM glucose divided by the area under the curve of the second pulse of 16.7 mM glucose containing compound.

[2] = Glucose clearance: acute in vivo model; parameters: species or system Sprague-Dawley rats; conditions: Rattus norvegicus, po, 0.5 h; 100 mg/kg intragastric, 30 min before i.p. glucose 1 g/kg; circulating glucose at 30 min; >100% indicates activity
Experimental: GLUCOSE CLEARANCE: ACUTE IN VIVO MODEL
The rationale for this test is that compounds which suppress insulin secretion should increase circulating glucose levels above those observed in controls following the administration of a high glucose load. Sprague-Dawley rats which range in weight from 150 to 180 grams after an overnight fast of 16 or 18 hours are given the test compound (100 mg/kg body weight) by intragastric administration 30 minutes before the intraperitoneal administration of glucose (1 g/kg body weight). Circulating glucose levels are determined immediately before glucose administration and 30, 60 and 90 minutes after glucose administration. Active compounds increase circulating glucose levels compared to controls. Since glucose levels peak at 30 minutes following glucose administration, the difference in circulating glucose levels between controls and treated rats at 30 minutes is used as an index of activity. The data are expressed as percent of control.

[3] = Antiobesity effects in obese Zucker rats; assay type: in vivo, genetically obese male Zucker rats; conditions: for Circulating Insulin: last day of treatment; for Relative Body Weight Gain Index: gain / days / dose (g/kg)
Experimental: ANTIOBESITY EFFECTS IN OBESE ZUCKER RATS
Genetically Obese Male Zucker rats were kept in temperature (22° C.) and light (12 hours light-dark cycle) regulated rooms. One week prior to the start of the experiment, the rats were transferred to individual wirebottomed cages and trained to eat a powdered chow diet (Ralston Purina Co., St. Louis, Mo.) ad libitum.
At the beginning of the experiment, the control group contributed to eat the chow diet and the experimental animals were given a chow diet containing drug. The amount of drug administered was calculated from the food intake per kg body weight for each experimental group. The age of the rats at the start of the drug treatment was two to three months. The period of treatment was 28 to 64 days. Food intake and body weights were recorded periodically (once each day to twice a week) throughout the duration of the study. Plasma samples for insulin and glucose determinations were taken from clipped tails. Carcass composition was determined at the end of the treatment period and, or comparative purposes, prior to the start of treatment.

[4] = Antiobesity effects in obese Zucker rats; assay type: in vivo, genetically obese male Zucker rats; conditions: 14 days; for Relative Body Weight Gain Index: gain / days / dose (g/kg)

C(=C(c1ccccc1)c1ccccc1)C1CCN(CCCCCCCc2cccnc2)CC1 [Example 24, 3-[7-[4-(2,2-Diphenylethenyl)-1-piperidinyl]heptyl]pyridine (1:1)-(E)-2-butenedioate salt hemihydrate]
Perfused Pancreas Inhibition Index ([1]; 50 μM): 35 | response vs control in vivo at 100 mg/kg [2]: 118%

C(=C(c1ccccc1)c1ccccc1)C1CCN(CCCCCCCCc2cccnc2)CC1 [Example 25, 3-[8-[4-(2,2-diphenylethenyl)-1-piperidinyl]octyl]pyridine]
Perfused Pancreas Inhibition Index ([1]; 50 μM): 38 | response vs control in vivo at 100 mg/kg [2]: 127% | Body Weight Gain (treated minus control) ([3]; 9 mg/kg, 28 days): +9 g | Food Intake ([3]; 9 mg/kg, 28 days): 91 % of control | Circulating Insulin ([3]; 9 mg/kg, 28 days): 83 % of control | Body Weight Gain (treated minus control) ([3]; 17 mg/kg, 28 days): -16 g | Food Intake ([3]; 17 mg/kg, 28 days): 89 % of control | Circulating Insulin ([3]; 17 mg/kg, 28 days): 76 % of control | Circulating Insulin ([3]; 24 mg/kg, 28 days, * p < 0.05): 47 % of control | Body Weight Gain (treated minus control) ([3]; 24 mg/kg, 28 days, * p < 0.05): -32 g | Food Intake ([3]; 24 mg/kg, 28 days, * p < 0.05): 82 % of control | Circulating Insulin ([3]; 28 mg/kg, 64 days, * p < 0.05): 47 % of control | Body Weight Gain (treated minus control) ([3]; 28 mg/kg, 64 days, * p < 0.05): -88 g | Carcass Lipid Difference (treated minus control) ([3]; 28 mg/kg, 64 days, * p < 0.05): -62 g | Food Intake ([3]; 28 mg/kg, 64 days, * p < 0.05): 81 % of control | Circulating Insulin ([3]; 34 mg/kg, 28 days, * p < 0.05): 33 % of control | Body Weight Gain (treated minus control) ([3]; 34 mg/kg, 28 days, * p < 0.05): -55 g | Food Intake ([3]; 34 mg/kg, 28 days, * p < 0.05): 83 % of control | Relative Body Weight Gain Index ([3]; 38 mg/kg, 14 days): 92 | Food Intake ([3]; 38 mg/kg, 14 days, marked *): 73 % of control | Food Intake ([3]; 28 days of treatment, in words): dose dependent decrease | body weight ([3]; 28 days of treatment, in words): dose dependent decrease in body weight | insulin levels ([3]; 28 days of treatment, in words): dose dependent decrease | body weight ([3]; 64 days, in words): Reduced body weight | carcass lipid ([3]; 64 days, in words): decreased carcass lipid | Glucose levels ([3]; treatment of obese rats, in words): unaltered by treatment | Body Weight Gain (treated minus control) ([4]; 38 mg/kg, marked *): -49 g

Fc1ccc(C(CC2CCN(CCCCCCc3cccnc3)CC2)c2ccc(F)cc2)cc1 [Example 26, 3-[6-[4-[2,2-Bis(4-fluorophenyl)ethyl]-1-piperidinyl]hexyl]pyridine (1:1)-(E)-2-butenedioate salt]
Perfused Pancreas Inhibition Index ([1]; 50 μM): 2.0 | response vs control in vivo at 100 mg/kg [2]: 125%

C(=C(c1ccccc1)c1ccccc1)C1CCN(CCCCc2cncnc2)CC1 [Example 28, 5-[4-[4-(2,2-diphenylethenyl)-1-piperidinyl]butyl]pyrimidine (1:1)-(E)-2-butenedioate salt]
Perfused Pancreas Inhibition Index ([1]; 100 μM): 3.0 | response vs control in vivo at 100 mg/kg [2]: 147%

C(=C(c1ccccc1)c1ccccc1)C1CCN(CCCCCCc2cncnc2)CC1 [Example 29, 5-[6-[4-(2,2-Diphenylethenyl)-1-piperidinyl]hexyl]pyrimidine]
Perfused Pancreas Inhibition Index ([1]; 100 μM): 10.4 | response vs control in vivo at 100 mg/kg [2]: 104%

O=C(CCCCCCCCc1cccnc1)N1CCC(C=C(c2ccccc2)c2ccccc2)CC1 [Example 30, 4-(2,2-Diphenylethenyl)-1-[1-oxo-9-(3-pyridinyl)nonyl]piperidine]
Perfused Pancreas Inhibition Index ([1]; 50 μM): 1.4 | response vs control in vivo at 100 mg/kg [2]: 100% | Body Weight Gain (treated minus control) ([3]; 49 mg/kg, 14 days): -12 g | Food Intake ([3]; 49 mg/kg, 14 days): 100 % of control | Relative Body Weight Gain Index ([4]; 49 mg/kg): 17

C(=C(c1ccccc1)c1ccccc1)C1CCN(CCCCCCCCCc2cccnc2)CC1 [Example 31, 3-[9-[4-(2,2-Diphenylethenyl)-1-piperidinyl]nonyl]pyridine]
Perfused Pancreas Inhibition Index ([1]; 50 μM): 2.7 | response vs control in vivo at 100 mg/kg [2]: 107% | Relative Body Weight Gain Index ([3]; 41 mg/kg, 14 days): 61 | Body Weight Gain (treated minus control) ([3]; 41 mg/kg, 14 days, marked *): -35 g | Food Intake ([3]; 41 mg/kg, 14 days, marked *): 82 % of control

C(=C(c1ccccc1)c1ccccc1)C1CCN(CCCCCCCCCCc2cccnc2)CC1 [Example 32, 3-[10-[4-(2,2-Diphenylethenyl)-1-piperidinyl]decyl]pyridine]
response vs control in vivo at 100 mg/kg [2]: 100% | Food Intake ([3]; 46 mg/kg, 14 days): 91 % of control | Body Weight Gain (treated minus control) ([3]; 46 mg/kg, 14 days, marked *): -46 g | Relative Body Weight Gain Index ([4]; 46 mg/kg): 71

O=C(CCCCCn1ccnc1)N1CCC(C=C(c2ccccc2)c2ccccc2)CC1 [Example 33, 4-(2,2-Diphenylethenyl)-1-[1-oxo-6-(1H-imidazo-1-yl)hexyl]piperidine]
Perfused Pancreas Inhibition Index ([1]; 50 μM): 2.5 | response vs control in vivo at 100 mg/kg [2]: 120%

C(=C(c1ccccc1)c1ccccc1)C1CCN(CCCCCCn2ccnc2)CC1 [Example 34, 1-[6-[4-(2,2-Diphenylethenyl)-1-piperidinyl]hexyl]-1H-imidazole]
Perfused Pancreas Inhibition Index ([1]; 50 μM): 1.1 | response vs control in vivo at 100 mg/kg [2]: 101%
